# Measured values: patent publication US10639284B2, “Immunomodulator compounds” (CHEMOCENTRYX, INC., priority 2016, dated 2020)
# Target: human PD-L1 / Human PD-1 (Homo sapiens (Human), UniProt Q9NZQ7)
# Assay: Enzyme-Linked Immunosorbent Assay (ELISA), PD-1/PD-L1 binding
# Conditions: Table 2; plate-coated human PD-L1, biotinylated human PD-1; read-out: ELISA IC50
# Summary of the method: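 Human PD-L1 coated at 1 μg/mL overnight at 4° C; samples diluted 1:5 and incubated with human PD-1 and biotin (0.3 μg/mL) for 1 h at 37° C. Bound PD-1 detected with streptavidin-HRP and TMB (20 min, 37° C), acid-stopped, absorbance at 450 nm.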
# Sequence of human PD-L1 / Human PD-1 (Q9NZQ7 19-239): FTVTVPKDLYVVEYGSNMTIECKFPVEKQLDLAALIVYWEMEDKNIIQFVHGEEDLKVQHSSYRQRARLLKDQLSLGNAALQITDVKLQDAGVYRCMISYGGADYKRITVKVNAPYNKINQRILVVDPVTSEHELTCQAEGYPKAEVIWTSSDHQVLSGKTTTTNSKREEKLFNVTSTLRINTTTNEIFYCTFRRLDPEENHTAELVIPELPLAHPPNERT
row,IC50 [nM],Structure (SMILES)
1,< 100,N#Cc1cncc(COc2cc(O[C@@H]3CCc4c(-c5ccccc5F)cccc43)c(Cl)cc2CN[C@@H](CO)C(=O)O)c1 [Example 2.139]
2,< 100,N#Cc1cncc(COc2cc(O[C@H]3CCc4c(-c5ccccc5F)cccc43)c(Cl)cc2CN2CCC(O)(C(=O)O)C2)c1 (some centres unmarked) [Example 2.022]
3,500 to 20000,N#Cc1cncc(COc2cc(O[C@H]3CCc4c(-c5ccc(Cl)c(Cl)c5)cccc43)c(Cl)cc2CN[C@@H](CO)C(=O)O)c1 [Example 2.016]
4,< 100,N#Cc1cncc(COc2cc(OC3CCc4c(-c5ccccc5)cccc43)c(Cl)cc2CN2CCCC[C@H]2C(=O)O)c1 (some centres unmarked) [Example 1.005]
5,< 100,N#Cc1cncc(COc2cc(O[C@H]3CCc4c(-c5ccccc5F)cccc43)c(Cl)cc2CNCP(=O)(O)O)c1 [Example 2.063]
6,< 100,COc1cccc(-c2cccc3c2CC[C@@H]3Oc2cc(OCc3cncc(C#N)c3)c(CN[C@H](CO)C(=O)O)cc2Cl)c1F [Example 2.107]
7,< 100,N#Cc1cncc(COc2cc(O[C@H]3CCc4c(-c5ccccc5F)cccc43)c(Cl)cc2CN[C@H](CO)C(=O)O)c1 [Example 2.102]
8,100 to 500,COc1cccc(-c2cccc3c2CC[C@@H]3Oc2cc(OCc3cncc(C#N)c3)c(CN3CCC[C@@H](O)C3)cc2Cl)c1F [Example 2.055]
9,< 100,COc1cc(O[C@H]2CCc3c(-c4ccc5c(c4)OCCO5)cccc32)c(Cl)cc1CN[C@@H](CO)C(=O)O [Example 2.039]
10,100 to 500,N#Cc1cncc(COc2cc(O[C@H]3CCc4c(-c5ccccc5F)cccc43)c(Cl)cc2CN2CC(O)(C(=O)O)C2)c1 [Example 2.018]
11,500 to 20000,NC(=O)COc1cc(O[C@H]2CCc3c(-c4ccccc4F)cccc32)c(Cl)cc1CN[C@@H](CO)C(=O)O [Example 2.124]
12,100 to 500,COc1cccc(-c2cccc3c2CC[C@@H]3Oc2cc(OCc3cncc(C#N)c3)c(CN3CCC[C@H](O)C3)cc2Cl)c1F [Example 2.060]
13,500 to 20000,CC(C)(O)CNCc1cc(Cl)c(O[C@H]2CCc3c(-c4ccccc4)cccc32)cc1OCc1cncc(C#N)c1 [Example 1.012]

# Same assay, conditions: Table 3; plate-coated human PD-L1, biotinylated human PD-1; read-out: ELISA IC50
row,IC50 [nM],Structure (SMILES)
1,100 to 500,CC(NCc1cc(Cl)c(O[C@H]2CCc3c(-c4ccccc4F)cccc32)cc1OCc1cncc(C#N)c1)c1ccn(C)n1 (some centres unmarked) [Example 3.066]
2,< 100,N#Cc1cncc(COc2cc(O[C@H]3CCc4c(-c5ccccc5F)cccc43)c(Cl)cc2CN[C@@H](CO)C(=O)NCC(=O)O)c1 [Example 3.044]
3,100 to 500,NCCCC[C@H](NCc1cc(Cl)c(O[C@H]2CCc3c(-c4ccccc4F)cccc32)cc1OCc1cncc(C(=O)O)c1)C(=O)O [Example 3.023]
4,< 100,N#Cc1cncc(COc2cc(O[C@H]3CCc4c(-c5ccccc5F)cccc43)c(Cl)cc2CN2CC[C@H](C(=O)O)C2)c1 [Example 3.131]
5,< 100,CS(=O)(=O)c1cncc(COc2cc(O[C@H]3CCc4c(-c5ccc6c(c5F)OCCO6)cccc43)c(Cl)cc2CN[C@@H](CO)C(=O)O)c1 [Example 3.010]
6,100 to 500,N#Cc1cncc(COc2cc(O[C@H]3CCc4c(-c5ccccc5F)cccc43)c(Cl)cc2CNCCCN2CCN(CCO)CC2)c1 [Example 3.089]
7,< 100,N#Cc1cncc(COc2cc(O[C@H]3CCc4c(-c5ccccc5F)cccc43)c(Cl)cc2CN[C@@H]2CCCC[C@@H]2O)c1 [Example 3.032]
8,< 100,C[C@@H](O)[C@H](NCc1cc(Cl)c(O[C@H]2CCc3c(-c4ccc5c(c4F)OCCO5)cccc32)cc1OCc1cncc(C#N)c1)C(=O)O [Example 3.053]
9,100 to 500,Cn1nccc1-c1cncc(COc2cc(O[C@H]3CCc4c(-c5ccccc5F)cccc43)c(Cl)cc2CN[C@@H](CO)C(=O)O)c1 [Example 3.106]
10,100 to 500,N#Cc1cncc(COc2cc(O[C@H]3CCc4c(-c5ccccc5F)cccc43)c(Cl)cc2CNCc2ccc(C(N)=O)cc2)c1 [Example 3.092]
